Data from patent US5294611A, “Angiotensin II receptor blocking 2,3,6 substituted quinazolinones” (American Cyanamid Company, priority 1993, dated 1994).
Like-named read-outs stand apart in the source and are kept apart here.

Tested on: Angiotensin II (AII) vasopressor response
Experiment: AII Challenge: antagonism of angiotensin II vasopressor response in conscious spontaneously hypertensive rats
Format: in vivo, rat (male okamoto-Aoki SHR)
Conditions: for inhibition in vivo at 3 mg/kg / inhibition in vivo at 5 mg/kg: Rattus norvegicus, read-out: Inhibition; for inhibition in vivo at 3 mg/kg: iv; for Change: single SHR; for inhibition in vivo at 5 mg/kg: po
Summary of the method: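 Read-out is the systolic pressure increase (mmHg) to i.v. angiotensin II, 0.05 and 0.1 ug/kg, compared pre- and post-dose in restrained, conscious spontaneously hypertensive male rats. Compounds administered orally, i.p. or i.v.; arterial cannula inserted under local anaesthesia.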

[1] = 0.5 h, SHR n=2, 3 mg/kg I.V., AII 0.05 mcg/kg IV, 30 min post dose
[2] = 0.5 h, SHR n=2, 3 mg/kg I.V., AII 0.1 mcg/kg IV, 30 min post dose
[3] = 1 h, SHR n=2, 3 mg/kg I.V., AII 0.05 mcg/kg IV, 60 min post dose
[4] = 2 h, SHR n=2, 3 mg/kg I.V., AII 0.05 mcg/kg IV, 120 min post dose
[5] = 2 h, SHR n=2, 3 mg/kg I.V., AII 0.1 mcg/kg IV, 120 min post dose
[6] = 3 h, SHR n=2, 3 mg/kg I.V., AII 0.05 mcg/kg IV, 180 min post dose
[7] = 3 h, SHR n=2, 3 mg/kg I.V., AII 0.1 mcg/kg IV, 180 min post dose
[8] = […], SHR n=2, 3 mg/kg I.V., AII 0.05 mcg/kg IV, 90 min post dose
[9] = […], SHR n=2, 3 mg/kg I.V., AII 0.1 mcg/kg IV, 90 min post dose
[10] = SHR n=2, 3 mg/kg I.V., AII 0.05 mcg/kg IV, 30 min post dose
[11] = SHR n=2, 3 mg/kg I.V., AII 0.05 mcg/kg IV, 60 min post dose
[12] = SHR n=2, 3 mg/kg I.V., AII 0.05 mcg/kg IV, 90 min post dose
[13] = SHR n=2, 3 mg/kg I.V., AII 0.05 mcg/kg IV, 120 min post dose
[14] = SHR n=2, 3 mg/kg I.V., AII 0.05 mcg/kg IV, 180 min post dose
[15] = SHR n=2, 3 mg/kg I.V., AII 0.1 mcg/kg IV, 30 min post dose
[16] = SHR n=2, 3 mg/kg I.V., AII 0.1 mcg/kg IV, 60 min post dose
[17] = SHR n=2, 3 mg/kg I.V., AII 0.1 mcg/kg IV, 90 min post dose
[18] = SHR n=2, 3 mg/kg I.V., AII 0.1 mcg/kg IV, 120 min post dose
[19] = SHR n=2, 3 mg/kg I.V., AII 0.1 mcg/kg IV, 180 min post dose

SMILES: CCCCc1nc2ccc([C@H]3[C@@H]4C5CCC(C5)[C@@H]4ON3C)cc2c(=O)n1Cc1ccc(-c2ccccc2-c2nnn[nH]2)cc1 (some centres unmarked) [Example 51]
- inhibition in vivo at 3 mg/kg [1]: 89%
- inhibition in vivo at 3 mg/kg [2]: 87%
- inhibition in vivo at 3 mg/kg [3]: 63%
- inhibition in vivo at 3 mg/kg (1 h): 82%
- inhibition in vivo at 3 mg/kg [4]: 83%
- inhibition in vivo at 3 mg/kg [5]: 75%
- inhibition in vivo at 3 mg/kg [6]: 67%
- inhibition in vivo at 3 mg/kg [7]: 63%
- inhibition in vivo at 3 mg/kg [8]: 78%
- inhibition in vivo at 3 mg/kg [9]: 80%
- Average Change [10]: 5 mmHg
- Average Change [11]: 16.5 mmHg
- Average Change [12]: 10 mmHg
- Average Change [13]: 7.5 mmHg
- Average Change [14]: 15 mmHg
- Average Change [15]: 8 mmHg
- Average Change [16]: 11 mmHg
- Average Change [17]: 12.5 mmHg
- Average Change [18]: 15.5 mmHg
- Average Change [19]: 22.5 mmHg
- Change (3 mg/kg I.V., AII 0.05 mcg/kg IV, 180 min post dose): 15 mmHg

SMILES: CCCCc1nc2ccc([C@H]3[C@@H]4C(=O)OC[C@@H]4ON3C)cc2c(=O)n1Cc1ccc(-c2ccccc2-c2nnn[nH]2)cc1 (relative stereo) [Example 53]
- inhibition in vivo at 3 mg/kg [1]: 74%
- inhibition in vivo at 3 mg/kg [2]: 81%
- inhibition in vivo at 3 mg/kg [3]: 99%
- inhibition in vivo at 3 mg/kg (1 h, SHR n=2, 3 mg/kg I.V., AII 0.1 mcg/kg IV, 60 min post dose): 95%
- inhibition in vivo at 3 mg/kg [4]: 42%
- inhibition in vivo at 3 mg/kg [5]: 64%
- inhibition in vivo at 3 mg/kg [6]: 77%
- inhibition in vivo at 3 mg/kg [7]: 64%
- inhibition in vivo at 3 mg/kg (4 h, SHR n=2, 3 mg/kg I.V., AII 0.05 mcg/kg IV, 240 min post dose): 36%
- inhibition in vivo at 3 mg/kg (4 h, SHR n=2, 3 mg/kg I.V., AII 0.1 mcg/kg IV, 240 min post dose): 44%
- inhibition in vivo at 3 mg/kg (5 h, SHR n=2, 3 mg/kg I.V., AII 0.05 mcg/kg IV, 300 min post dose): 49%
- inhibition in vivo at 3 mg/kg (5 h, SHR n=2, 3 mg/kg I.V., AII 0.1 mcg/kg IV, 300 min post dose): 39%
- inhibition in vivo at 3 mg/kg [8]: 68%
- inhibition in vivo at 3 mg/kg [9]: 66%
- inhibition in vivo at 5 mg/kg (0.5 h, SHR n=2, 5 mg/kg P.O., AII 0.05 mcg/kg IV, 30 min post dose): 75%
- inhibition in vivo at 5 mg/kg (0.5 h, SHR n=2, 5 mg/kg P.O., AII 0.1 mcg/kg IV, 30 min post dose): 59%
- inhibition in vivo at 5 mg/kg (1 h, SHR n=2, 5 mg/kg P.O., AII 0.05 mcg/kg IV, 60 min post dose): 81%
- inhibition in vivo at 5 mg/kg (1 h, SHR n=2, 5 mg/kg P.O., AII 0.1 mcg/kg IV, 60 min post dose): 53%
- inhibition in vivo at 5 mg/kg (2 h, SHR n=2, 5 mg/kg P.O., AII 0.05 mcg/kg IV, 120 min post dose): 98%
- inhibition in vivo at 5 mg/kg (2 h, SHR n=2, 5 mg/kg P.O., AII 0.1 mcg/kg IV, 120 min post dose): 74%
- inhibition in vivo at 5 mg/kg (3 h, SHR n=2, 5 mg/kg P.O., AII 0.05 mcg/kg IV, 180 min post dose): 96%
- inhibition in vivo at 5 mg/kg (3 h, SHR n=2, 5 mg/kg P.O., AII 0.1 mcg/kg IV, 180 min post dose): 79%
- inhibition in vivo at 5 mg/kg (4 h, SHR n=2, 5 mg/kg P.O., AII 0.05 mcg/kg IV, 240 min post dose): 69%
- inhibition in vivo at 5 mg/kg (4 h, SHR n=2, 5 mg/kg P.O., AII 0.1 mcg/kg IV, 240 min post dose): 71%
- inhibition in vivo at 5 mg/kg (5 h, SHR n=2, 5 mg/kg P.O., AII 0.05 mcg/kg IV, 300 min post dose): 84%
- inhibition in vivo at 5 mg/kg (5 h, SHR n=2, 5 mg/kg P.O., AII 0.1 mcg/kg IV, 300 min post dose): 53%
- inhibition in vivo at 5 mg/kg ([…], SHR n=2, 5 mg/kg P.O., AII 0.05 mcg/kg IV, 90 min post dose): 88%
- inhibition in vivo at 5 mg/kg ([…], SHR n=2, 5 mg/kg P.O., AII 0.1 mcg/kg IV, 90 min post dose): 76%
- Average Change [10]: 10 mmHg
- Average Change [11]: 0.5 mmHg
- Average Change [12]: 12.5 mmHg
- Average Change [13]: 22.5 mmHg
- Average Change [14]: 9 mmHg
- Average Change (SHR n=2, 3 mg/kg I.V., AII 0.05 mcg/kg IV, 240 min post dose): 25 mmHg
- Average Change [15]: 9.5 mmHg
- Average Change [16]: 2.5 mmHg
- Average Change [17]: 16.5 mmHg
- Average Change [18]: 17.5 mmHg
- Average Change [19]: 17.5 mmHg
- Average Change (SHR n=2, 3 mg/kg I.V., AII 0.1 mcg/kg IV, 240 min post dose): 27.5 mmHg
- Average Change (SHR n=2, 3 mg/kg I.V., AII 0.1 mcg/kg IV, 300 min post dose): 30 mmHg
- Average Change (SHR n=2, 5 mg/kg P.O., AII 0.05 mcg/kg IV, 30 min post dose): 10 mmHg
- Average Change (SHR n=2, 5 mg/kg P.O., AII 0.05 mcg/kg IV, 60 min post dose): 7.5 mmHg
- Average Change (SHR n=2, 5 mg/kg P.O., AII 0.05 mcg/kg IV, 90 min post dose): 5 mmHg
- Average Change (SHR n=2, 5 mg/kg P.O., AII 0.05 mcg/kg IV, 120 min post dose): 1 mmHg
- Average Change (SHR n=2, 5 mg/kg P.O., AII 0.05 mcg/kg IV, 180 min post dose): 1.5 mmHg
- Average Change (SHR n=2, 5 mg/kg P.O., AII 0.05 mcg/kg IV, 240 min post dose): 12.5 mmHg
- Average Change (SHR n=2, 5 mg/kg P.O., AII 0.05 mcg/kg IV, 300 min post dose): 6.5 mmHg
- Average Change (SHR n=2, 5 mg/kg P.O., AII 0.1 mcg/kg IV, 30 min post dose): 17.5 mmHg
- Average Change (SHR n=2, 5 mg/kg P.O., AII 0.1 mcg/kg IV, 60 min post dose): 20 mmHg
- Average Change (SHR n=2, 5 mg/kg P.O., AII 0.1 mcg/kg IV, 90 min post dose): 10 mmHg
- Average Change (SHR n=2, 5 mg/kg P.O., AII 0.1 mcg/kg IV, 120 min post dose): 11 mmHg
- Average Change (SHR n=2, 5 mg/kg P.O., AII 0.1 mcg/kg IV, 180 min post dose): 9 mmHg
- Average Change (SHR n=2, 5 mg/kg P.O., AII 0.1 mcg/kg IV, 240 min post dose): 12.5 mmHg
- Average Change (SHR n=2, 5 mg/kg P.O., AII 0.1 mcg/kg IV, 300 min post dose): 20 mmHg
- Change (3 mg/kg I.V., AII 0.05 mcg/kg IV, 240 min post dose): 25 mmHg
- Change (3 mg/kg I.V., AII 0.05 mcg/kg IV, 300 min post dose): 20 mmHg
- Change (3 mg/kg I.V., AII 0.1 mcg/kg IV, 300 min post dose): 30 mmHg
- Change (5 mg/kg P.O., AII 0.1 mcg/kg IV, 300 min post dose): 20 mmHg
